The subject of the assay is L1210 leukemia ip in BDF1 mice, survival T/C. The experiment in a line: NCI In Vivo Anticancer Drug Screen. Data for tumor model L1210 Leukemia (intraperitoneal) in B6D2F1 (BDF1) mice. Conditions: endpoint: mean survival time, higher = longer survival. In short, it runs like this: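 Tumor cells were implanted, animals were treated, and survival was followed. The result divides the treated measurement by the vehicle-control measurement.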

Where [1] appears, read: dose: 100.0 mg/kg/injection, schedule: Q01DX001 (ip), vehicle: saline.
[2] abbreviates: dose: 100.0 mg/kg/injection, schedule: Q01DX001 (ip), vehicle: other.
Setting [3] is: dose: 200.0 mg/kg/injection, schedule: Q01DX001 (ip), vehicle: other.
[4] abbreviates: dose: 400.0 mg/kg/injection, schedule: Q01DX001 (ip), vehicle: other.
The mark [5] stands for this setting: dose: 100.0 mg/kg/injection, schedule: Q04DX002 (ip), vehicle: Klucel (hydroxypropylcellulose) (HPC).
Setting [6] is: dose: 200.0 mg/kg/injection, schedule: Q04DX002 (ip), vehicle: Klucel (hydroxypropylcellulose) (HPC).
[7] abbreviates: dose: 400.0 mg/kg/injection, schedule: Q04DX002 (ip), vehicle: Klucel (hydroxypropylcellulose) (HPC).
Where [8] appears, read: dose: 100.0 mg/kg/injection, schedule: Q01DX009 (ip), vehicle: Klucel (hydroxypropylcellulose) (HPC).
[9] abbreviates: dose: 100.0 mg/kg/injection, schedule: Q04DX003 (ip), vehicle: Klucel (hydroxypropylcellulose) (HPC).
The mark [10] stands for this setting: dose: 200.0 mg/kg/injection, schedule: Q01DX009 (ip), vehicle: Klucel (hydroxypropylcellulose) (HPC).
The mark [11] stands for this setting: dose: 200.0 mg/kg/injection, schedule: Q04DX003 (ip), vehicle: Klucel (hydroxypropylcellulose) (HPC).
[12] abbreviates: dose: 400.0 mg/kg/injection, schedule: Q01DX009 (ip), vehicle: Klucel (hydroxypropylcellulose) (HPC).

Where “and” joins values, the source holds several entries; their conditions need not be identical. Equal entries are not always repeated. Toxic doses and inconclusive results are not listed.

As to `COC1OC(COC(C)=O)C(OC(C)=O)C2C1N2C(N)=S` (stereo unspecified), the T/C (dose: 100.0 mg/kg/injection, schedule: Q04DX002 (ip), vehicle: saline) was 110 % of control and the T/C (dose: 400.0 mg/kg/injection, schedule: Q04DX002 (ip), vehicle: saline) was 113 % of control.

Consider `CCS(=O)(=O)CCNC(=O)NS(=O)(=O)c1ccc(C)cc1`, for which the T/C is 97 % of control (dose: 100.0 mg/kg/injection, schedule: Q04DX003 (ip), vehicle: saline with Tween-80); 97 % of control (dose: 200.0 mg/kg/injection, schedule: Q04DX003 (ip), vehicle: saline with Tween-80); 90 % of control (dose: 400.0 mg/kg/injection, schedule: Q04DX003 (ip), vehicle: saline with Tween-80).

In the case of `COc1c(N)cc2c(c1C)OCOC2`, the T/C under setting [1] was 97 % of control; the T/C (dose: 200.0 mg/kg/injection, schedule: Q01DX001 (ip), vehicle: saline) was 100 % of control; the T/C (dose: 400.0 mg/kg/injection, schedule: Q01DX001 (ip), vehicle: saline) was 105 % of control.

In the case of `CC(CCCCCOC(=O)Nc1ccccc1)OC(=O)Nc1ccccc1` (stereo unspecified), the T/C by setting is: under setting [2], 98 % of control; under setting [3], 87 % of control; under setting [4], 96 % of control.

`CC(NC(=O)NC(C)(C)C)c1ccccc1` (stereo unspecified): the T/C runs as follows: under setting [5], 102 % of control; under setting [6], 105 % of control; under setting [7], 121 % of control.

For `C(#CSCc1ccccc1)SCc1ccccc1`, the T/C is 94 % of control under setting [8]; 104 % of control under setting [9]; 96 % of control under setting [10]; 102 % of control under setting [11]; 97 % of control under setting [12]; 104 % of control (dose: 400.0 mg/kg/injection, schedule: Q04DX003 (ip), vehicle: Klucel (hydroxypropylcellulose) (HPC)).

On to `O=C(Nc1ccccc1F)OCc1ccco1`, for which the T/C (dose: 100.0 mg/kg/injection, schedule: Q01DX001 (ip), vehicle: Klucel (hydroxypropylcellulose) (HPC)) was 99 % of control; the T/C under setting [8] was 95 % of control and 102 % of control; the T/C under setting [5] was 102 % of control and 106 % of control; the T/C (dose: 200.0 mg/kg/injection, schedule: Q01DX001 (ip), vehicle: Klucel (hydroxypropylcellulose) (HPC)) is 99 % of control; the T/C under setting [10] is 95 % of control and 91 % of control; the T/C under setting [6] is 106 % of control and 118 % of control. The T/C is, setting by setting: (dose: 400.0 mg/kg/injection, schedule: Q01DX001 (ip), vehicle: Klucel (hydroxypropylcellulose) (HPC)) 94 % of control; under setting [12], 98 % of control and 102 % of control; under setting [7], 96 % of control and 104 % of control.

For the compound `Cc1ccc(-n2c(=O)[nH]c3c(c2=O)C(c2ccc(Cl)cc2)C(C)(C)O3)cc1` (stereo unspecified), the T/C was 97 % of control (dose: 12.5 mg/kg/injection, schedule: Q01DX001 (ip), vehicle: saline); 107 % of control (dose: 12.5 mg/kg/injection, schedule: Q04DX003 (ip), vehicle: saline); 101 % of control (dose: 25.0 mg/kg/injection, schedule: Q04DX003 (ip), vehicle: saline); 96 % of control (dose: 50.0 mg/kg/injection, schedule: Q01DX001 (ip), vehicle: saline); 90 % of control (dose: 50.0 mg/kg/injection, schedule: Q04DX003 (ip), vehicle: saline); 97 % of control (dose: 75.0 mg/kg/injection, schedule: Q04DX003 (ip), vehicle: saline). Further, the T/C was 94 % of control (dose: 113.0 mg/kg/injection, schedule: Q04DX003 (ip), vehicle: saline) and 95 % of control (dose: 169.0 mg/kg/injection, schedule: Q04DX003 (ip), vehicle: saline).

Consider `CCN1CCN(CC)C1=S`, for which the T/C reads like this: (dose: 50.0 mg/kg/injection, schedule: Q04DX002 (ip), vehicle: Klucel (hydroxypropylcellulose) (HPC)) 114 % of control; under setting [5], 90 % of control; under setting [6], 109 % of control.

As to `COc1ccc2nc3cc(Cl)ccc3c(NC(C)CCCN(CCCl)CCCl)c2c1` (stereo unspecified), the T/C is, setting by setting: (dose: 0.25 mg/kg/injection, schedule: Q01DX009 (ip), vehicle: saline) 108 % of control; (dose: 0.25 mg/kg/injection, schedule: Q04DX003 (ip), vehicle: saline) 115 % of control; (dose: 0.5 mg/kg/injection, schedule: Q01DX009 (ip), vehicle: saline) 117 % of control; (dose: 0.5 mg/kg/injection, schedule: Q04DX003 (ip), vehicle: saline) 100 % of control; (dose: 1.0 mg/kg/injection, schedule: Q01DX009 (ip), vehicle: saline) 104 % of control; (dose: 1.0 mg/kg/injection, schedule: Q04DX003 (ip), vehicle: saline) 109 % of control. For the same compound, the T/C (dose: 2.0 mg/kg/injection, schedule: Q04DX003 (ip), vehicle: saline) was 116 % of control.

On to `O=C(NCCCCC(NC(=O)OCc1ccccc1)C(=O)NCCCCCCCCCCNC(=O)C(CCCCNC(=O)OCc1ccccc1)NC(=O)OCc1ccccc1)OCc1ccccc1` (stereo unspecified), for which the T/C runs as follows: (dose: 10.0 mg/kg/injection, schedule: Q01DX012 (ip), vehicle: saline) 94 % of control; (dose: 30.0 mg/kg/injection, schedule: Q01DX012 (ip), vehicle: saline) 96 % of control; (dose: 100.0 mg/kg/injection, schedule: Q01DX012 (ip), vehicle: saline) 94 % of control; (dose: 300.0 mg/kg/injection, schedule: Q01DX012 (ip), vehicle: saline) 88 % of control.

In the case of `CC/C(=N/OC(=O)N(CC)CC)c1ccccc1`, the T/C is, setting by setting: under setting [2], 96 % of control; under setting [3], 91 % of control; under setting [4], 93 % of control.

As for `O=C1C=C(N2CC2)C(=O)C(N2CC2)=C1N1CC1`, the T/C runs as follows: (dose: 0.07 mg/kg/injection, schedule: Q01DX001 (ip), vehicle: saline) 112 % of control; (dose: 0.1 mg/kg/injection, schedule: Q01DX Z (ip), vehicle: saline) 93 % of control; (dose: 0.3 mg/kg/injection, schedule: Q01DX001 (ip), vehicle: saline) 155 % of control; (dose: 0.6 mg/kg/injection, schedule: Q01DX001 (ip), vehicle: saline) 87 % of control; (dose: 6.3 micrograms/kg/injection, schedule: Q01DX015 (ip), vehicle: saline) 107 % of control; (dose: 12.5 micrograms/kg/injection, schedule: Q01DX015 (ip), vehicle: saline) 102 % of control. Moreover, the T/C by setting is: (dose: 25.0 micrograms/kg/injection, schedule: Q01DX015 (ip), vehicle: saline) 113 % of control; (dose: 75.0 micrograms/kg/injection, schedule: Q01DX009 (ip), vehicle: saline) 113 % of control.

As for `CCCCCCCC(=O)Nc1ccc(F)cc1`, the T/C reads like this: (dose: 100.0 mg/kg/injection, schedule: Q04DX003 (ip), vehicle: acetone) 95 % of control; (dose: 200.0 mg/kg/injection, schedule: Q04DX003 (ip), vehicle: acetone) 95 % of control; (dose: 400.0 mg/kg/injection, schedule: Q04DX003 (ip), vehicle: acetone) 90 % of control.

As to `CCC[CH2][Pb]([Cl])([CH2]CCC)[CH2]CCC`, under “dose: 6.25 mg/kg/injection, schedule: Q01DX009 (ip), vehicle: saline with Tween-80”, the T/C was 90 % of control.

For `CSc1cccc(NC(=S)NC(=O)c2ccccc2)c1`, the T/C runs as follows: (dose: 25.0 mg/kg/injection, schedule: Q01DX009 (ip), vehicle: Klucel (hydroxypropylcellulose) (HPC)) 96 % of control; (dose: 50.0 mg/kg/injection, schedule: Q01DX009 (ip), vehicle: Klucel (hydroxypropylcellulose) (HPC)) 94 % of control; under setting [8], 91 % of control.

`Clc1ccc(CNc2ccccn2)s1`: where the note is “dose: 150.0 mg/kg/injection, schedule: Q01DX001 (ip), vehicle: saline”, the T/C is 88 % of control.

For `OC(CN1CCCC1)c1cc2cc(Br)ccc2s1` (stereo unspecified), the T/C under setting [1] is 107 % of control.

Turning to `CCC(Cl)COP(=O)(OCC(Cl)CC)O/C(C)=C(/C)P(=O)(OCC(Cl)CC)OCC(Cl)CC` (stereo unspecified), the T/C is, setting by setting: (dose: 100.0 mg/kg/injection, schedule: Q04DX002 (ip), vehicle: saline with Tween-80) 104 % of control; (dose: 200.0 mg/kg/injection, schedule: Q04DX002 (ip), vehicle: saline with Tween-80) 96 % of control; (dose: 400.0 mg/kg/injection, schedule: Q04DX002 (ip), vehicle: saline with Tween-80) 100 % of control.

Turning to `Clc1ccc(N2CCN(CCCN3CCN(c4cccc(Cl)c4)CC3)CC2)cc1`, the T/C under setting [9] was 88 % of control and the T/C under setting [11] is 91 % of control.

These data come from PubChem BioAssay AID248 (DTP/NCI, 2004).
